# Experimental data taken from US9133168B2, “Pyrimidine derivatives, preparation thereof, and pharmaceutical use thereof as akt(pkb) phosphorylation inhibitors” (SANOFI, priority 2010, dated 2015).
# Test system: AKT protein phosphorylated on serine 473 (P-AKT-S473) in PC3 human prostate carcinoma cells
# Assay: pAKT expression in PC3 human prostate carcinoma cells, MSD Multi-spot Biomarker detection (Test A)
# Type: cell-based
# Details: 1 to 2 h incubation, P-AKT-S473, absolute IC50, mean of two independent experiments
# Summary of the method: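 Lysate pAKT-S473 measured by electrochemiluminescent sandwich immunoassay; inhibition versus cell-free background and DMSO-only wells, IC50 averaged over two experiments.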
SMILES,"IC50 (Homo sapiens, PC-3, PC3 cells) [nM]",IC50 (PC3 cells) [nM]
"CC1Cc2c(Cl)cccc2N1C(=O)Cc1nc(N2CCOCC2)cc(=O)[nH]1 (stereo not shown) [Example 1c, 2-[2-(4-chloro-2-methyl-2,3-dihydro-1H-indol-1-yl)-2-oxoethyl]-6-(morpholin-4-yl)pyrimidin-4(3H)-one]",,5
"CC1Cc2c(OC(F)F)cccc2N1C(=O)Cc1nc(N2CCOCC2)cc(=O)[nH]1 (single isomer, unassigned; (+)) [Example 29d, (+)-2-{2-[4-(difluoromethoxy)-2-methyl-2,3-dihydro-1H-indol-1-yl]-2-oxoethyl}-6-(morpholin-4-yl)pyrimidin-4(3H)-one]",,33
"CC1Cc2cc(F)ccc2N1C(=O)Cc1nc(N2CCOCC2)c(F)c(=O)[nH]1 (stereo not drawn) [Example 7a, 5-fluoro-2-[2-((−)-5-fluoro-2-methyl-2,3-dihydroindol-1-yl)-2-oxoethyl]-6-morpholin-4-yl-3H-pyrimidin-4-one]",,3
"CC1Cc2c(Br)cccc2N1C(=O)Cc1nc(N2CCOCC2)c(F)c(=O)n1C (stereo not drawn) [Example 31a, 5-fluoro-2-[2-((−)-4-bromo-2-methyl-2,3-dihydroindol-1-yl)-2-oxoethyl]-3-methyl-6-morpholin-4-yl-3H-pyrimidin-4-one]",,15
"O=C(Cc1nc(N2CCOCC2)cc(=O)[nH]1)N1c2ccccc2CC1c1ccccc1 (single isomer, unassigned; (+)) [Example 24d, (+)-6-(morpholin-4-yl)-2-{2-oxo-2-[2-phenyl-2,3-dihydro-1H-indol-1-yl]ethyl}pyrimidin-4(3H)-one]",,205
"CC1Cc2c(ccc(F)c2F)N1C(=O)Cc1nc(N2CCOCC2)c(F)c(=O)n1C (stereo not drawn) [Example 25a, 5-fluoro-2-[2-((+)-4,5-difluoro-2-methyl-2,3-dihydroindol-1-yl)-2-oxoethyl]-3-methyl-6-morpholin-4-yl-3H-pyrimidin-4-one]",,98
"Cn1c(CC(=O)N2CCc3c(F)cccc32)nc(N2CCOCC2)cc1=S [Example 6e, 1-(4-fluoro-2,3-dihydroindol-1-yl)-2-(1-methyl-4-morpholin-4-yl-6-thioxo-1,6-dihydropyrimidin-2-yl)ethanone]",31,
"CN1CCN(Cc2cccc3c2CCN3C(=O)Cc2nc(N3CCOCC3)cc(=O)[nH]2)CC1 [Example 18d, 2-(2-{4-[(4-methylpiperazin-1-yl)methyl]-2,3-dihydro-1H-indol-1-yl}-2-oxoethyl)-6-(morpholin-4-yl)pyrimidin-4(3H)-one]",272,
"CCCN1CCCC(c2cccc3c2CCN3C(=O)Cc2nc(N3CCOCC3)cc(=O)[nH]2)C1 (stereo not shown) [Example 7d, 6-(morpholin-4-yl)-2-{2-oxo-2-[4-(1-propylpiperidin-3-yl)-2,3-dihydro-4H-indol-1-yl]ethyl}pyrimidin-4(3H)-one]",102,
"C[C@@H]1Cc2ccccc2N1C(=O)Cc1nc(N2CCOCC2)cc(=O)[nH]1 [Example 20b, (−)-2-[2-(2-methyl-2,3-dihydroindol-1-yl)-2-oxoethyl]-6-(2,2,6,6-morpholin-D4)-4-yl-3H-pyrimidin-4-one]",,5

# Results, then the compound that gave them:
"IC50 (Homo sapiens, PC-3, PC3 cells) [nM]",IC50 (PC3 cells) [nM],SMILES
38,,"CC1Cc2c(Cl)cccc2N1C(=O)Cc1nc(N2CCOCC2)c(F)c(=O)[nH]1 (stereo not drawn) [Example 18a, 5-fluoro-2-[2-((+)-4-chloro-2-methyl-2,3-dihydroindol-1-yl)-2-oxoethyl]-6-morpholin-4-yl-3H-pyrimidin-4-one]"
,8,"CC1Cc2c(OC(F)F)cccc2N1C(=O)Cc1nc(N2CCOCC2)cc(=O)[nH]1 (single isomer, unassigned; (-)) [Example 30d, (−)-2-{2-[4-(difluoromethoxy)-2-methyl-2,3-dihydro-1H-indol-1-yl]-2-oxoethyl}-6-(morpholin-4-yl)pyrimidin-4(3H)-one]"
,13,"CC1Cc2cc(F)ccc2N1C(=O)Cc1nc(N2CCOCC2)cc(=O)n1C (single isomer, unassigned; (-)) [Example 16c, (−)-2-{2-[5-fluoro-2-methyl-2,3-dihydro-1H-indol-1-yl]-2-oxoethyl}-3-methyl-6-(morpholin-4-yl)pyrimidin-4(3H)-one]"
,260,"CC(F)(C(=O)N1CCc2c(F)cccc21)c1nc(N2CCOCC2)cc(=O)[nH]1 (single isomer, unassigned; (+)) [Example 45c, (+)-2-[2-fluoro-1-(4-fluoro-2,3-dihydro-1H-indol-1-yl)-1-oxopropan-2-yl]-6-(morpholin-4-yl)pyrimidin-4(3H)-one]"
1330,,"O=C(Cc1nc(N2CCOC(CO)C2)cc(=O)[nH]1)N1CCc2c(F)cccc21 (racemic) [Example 27b, (±)-2-[2-(4-fluoro-2,3-dihydroindol-1-yl)-2-oxoethyl]-6-(2-hydroxymethylmorpholin-4-yl)-3H-pyrimidin-4-one]"
,55,"CC1Cc2c(Cl)cccc2N1C(=O)Cc1nc(N2CCOCC2)cc(=O)n1C (single isomer, unassigned; (+)) [Example 33c, (+)-2-{2-[4-chloro-2-methyl-2,3-dihydro-1H-indol-1-yl]-2-oxoethyl}-3-methyl-6-(morpholin-4-yl)pyrimidin-4(3H)-one]"
33,,"Cn1c(CC(=O)N2CCc3c(Cl)cccc32)nc(N2CCOCC2)cc1=S [Example 7e, 1-(4-chloro-2,3-dihydroindol-1-yl)-2-(1-methyl-4-morpholin-4-yl-6-thioxo-1,6-dihydropyrimidin-2-yl)ethanone]"
45,,"Cn1c(CC(=O)N2CC(C)(C)c3c(F)cccc32)nc(N2CCOCC2)cc1=O [Example 7c, 2-[2-(4-fluoro-3,3-dimethyl-2,3-dihydro-1H-indol-1-yl)-2-oxoethyl]-3-methyl-6-(morpholin-4-yl)pyrimidin-4(3H)-one]"
41,,"C[C@H]1Cc2ccccc2N1C(=O)Cc1nc(N2CCOCC2)cc(=S)n1C [Example 4e, 1-((S)-2-methyl-2,3-dihydroindol-1-yl)-2-(1-methyl-4-morpholin-4-yl-6-thioxo-1,6-dihydropyrimidin-2-yl)ethanone]"
32,,"COc1ccccc1-c1cccc2c1CCN2C(=O)Cc1nc(N2CCOCC2)cc(=O)[nH]1 [Example 6d, 2-{2-[4-(2-methoxyphenyl)-2,3-dihydro-1H-indol-1-yl]-2-oxoethyl}-6-(morpholin-4-yl)pyrimidin-4(3H)-one]"
140,,"C[C@H]1Cc2ccccc2N1C(=O)Cc1nc(N2CCOCC2)c(Cl)c(=O)[nH]1 [Example 35a, 5-chloro-2-[2-((S)-2-methyl-2,3-dihydroindol-1-yl)-2-oxoethyl]-6-morpholin-4-yl-3H-pyrimidin-4-one]"
120,,"C[C@@H]1Cc2ccccc2N1C(=O)Cc1nc(N2CCOCC2)c(F)c(=O)n1C [Example 9a, 5-fluoro-3-methyl-2-{2-[(2R)-2-methyl-2,3-dihydro-1H-indol-1-yl]-2-oxoethyl}-6-(morpholin-4-yl)pyrimidin-4(3H)-one]"
